Data on two compounds can be found in BindingDB's records for patent US20240208953 (Novartis, 2024).

The target in this series is Potassium voltage-gated channel subfamily H member 2 (Homo sapiens, UniProt Q12809). The experiment in a line: hERG Qpatch Assay. Here is the method:
hERG currents were recorded using the Qpatch automated patch clamp systems (Sophion Bioscience Inc., North Brunswick, NJ) in the whole (single) cell configuration. hERG expressing CHO-K1 cells were harvested with Detachin (Genlantis) and stored in the modified serum-free SFM-2 media (Life Technologies) at room temperature. The extracellular solution contained (in mM) NaCl (145), KCl (4), MgCl2 (1), CaCl2 (2), and HEPES (10), pH 7.4, with NaOH. The intracellular solution contained KCl (135), MgCl2 (1.75), CaCl2 (5.4), EGTA (10), K2-ATP (4), and HEPES (10), pH 7.2, with KOH. After whole cell configuration was achieved, the cell was held at +-90 mV, and a 0.1 s pulse to +-50 mV was delivered to measure the leaking current, which was subtracted from the tail current online. Then the cell was depolarized to +20 mV for 4 s (prepulse), followed by a 4 s test pulse to +-50 mV to reveal the hERG tail current. To monitor changes in the current amplitude, this voltage protocol was repeatedly applied every 20 s. Test compounds were first diluted in DMSO for six dose-response experiments and then dissolved in the extracellular solution using Freedom EVO liquid handling robotic system (Tecan, M nnedorf, Switzerland). The final DMSO concentration in samples was 0.3% v/v. Amitriptyline (Sigma) was tested as a positive control.
In general terms: hERG is a cardiac potassium channel; its block is linked to QT prolongation.

Potassium voltage-gated channel subfamily H member 2, sequence (Q12809 whole entry): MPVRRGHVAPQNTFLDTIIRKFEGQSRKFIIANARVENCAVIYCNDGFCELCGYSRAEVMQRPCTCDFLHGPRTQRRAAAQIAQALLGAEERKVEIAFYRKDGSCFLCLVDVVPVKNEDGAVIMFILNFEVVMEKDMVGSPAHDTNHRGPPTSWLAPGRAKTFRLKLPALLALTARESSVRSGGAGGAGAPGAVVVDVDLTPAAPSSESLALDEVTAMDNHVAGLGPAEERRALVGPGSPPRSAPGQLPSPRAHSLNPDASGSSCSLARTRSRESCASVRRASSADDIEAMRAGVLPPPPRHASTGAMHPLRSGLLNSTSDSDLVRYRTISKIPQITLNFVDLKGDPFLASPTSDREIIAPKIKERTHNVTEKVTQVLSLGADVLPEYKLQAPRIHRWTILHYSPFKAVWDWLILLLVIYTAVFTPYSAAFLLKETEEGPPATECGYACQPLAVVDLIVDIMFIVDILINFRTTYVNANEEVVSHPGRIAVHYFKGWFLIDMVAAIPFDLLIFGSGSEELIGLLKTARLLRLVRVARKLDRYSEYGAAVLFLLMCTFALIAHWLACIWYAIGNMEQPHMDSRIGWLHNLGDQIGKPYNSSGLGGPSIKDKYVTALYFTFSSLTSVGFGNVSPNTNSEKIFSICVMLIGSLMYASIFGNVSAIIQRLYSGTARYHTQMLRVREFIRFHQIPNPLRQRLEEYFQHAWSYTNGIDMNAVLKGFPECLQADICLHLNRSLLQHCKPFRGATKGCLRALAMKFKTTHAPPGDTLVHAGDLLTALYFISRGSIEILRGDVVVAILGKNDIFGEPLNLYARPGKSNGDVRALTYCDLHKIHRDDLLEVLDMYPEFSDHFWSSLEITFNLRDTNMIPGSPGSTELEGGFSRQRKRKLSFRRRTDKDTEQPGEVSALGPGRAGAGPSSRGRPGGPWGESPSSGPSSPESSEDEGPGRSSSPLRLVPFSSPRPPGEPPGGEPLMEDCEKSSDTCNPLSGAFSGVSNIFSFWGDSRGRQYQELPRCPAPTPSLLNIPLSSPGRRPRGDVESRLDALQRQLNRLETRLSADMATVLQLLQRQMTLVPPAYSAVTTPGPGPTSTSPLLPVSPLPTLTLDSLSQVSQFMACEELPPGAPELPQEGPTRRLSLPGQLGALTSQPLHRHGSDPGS

In general, IC50 refers to the concentration needed to halve the response being measured. The low end stands for inhibition by little substance, the high end for a need for much substance. The compound `O=C1Nc2c(F)cc([C@@H](O)CN3C[C@H]4C[C@H](Oc5ccccc5)C[C@@]4(O)C3)cc2CO1` [US20240208953, Example 28A] returned an IC50 of 2.4 µM.

With `O=C1CCc2cc([C@H](O)CN3C[C@H]4C[C@H](Oc5ccccc5F)C[C@@]4(O)C3)cc(F)c2N1` [US20240208953, Example 29B], 12.5 µM corresponded to half-maximal inhibition (IC50).
